According to ChEMBL document CHEMBL1201862, “PubChem BioAssay data set” (2004):
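Step 1: Grow cells in 96-well plates. Step 2: Expose to compound for 48 hours at 5 concentrations. Step 3: Interpolate endpoints linearly; if unreached, use highest concentration. GI50 marks 50% less growth.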 Calls of active or inactive are those of the source. No stated cut-off is given here; in the data, active = GI50 up to about 1.1 µM and inactive = higher. Where a SMILES comes first, the peptide text is derived from it. The star is where a group is joined. Boc = CC(C)(C)OC(=O)*

Key:
Test in all cases: growth of human tumour cells (NCI), 48 h
[1] = tested on: HCT-15
[2] = tested on: OVCAR-4
[3] = tested on: DU-145
[4] = tested on: MCF7
[5] = tested on: OVCAR-8
[6] = tested on: SF-295
[7] = tested on: U-251
[8] = tested on: TK-10
[9] = tested on: SW-620
[10] = tested on: SF-539
[11] = tested on: KM12
[12] = tested on: BT-549
[13] = tested on: K562
[14] = tested on: NCI-H226
[15] = tested on: Hs-578T
[16] = tested on: SK-MEL-2
[17] = tested on: SK-OV-3
[18] = tested on: SNB-75
[19] = tested on: HCC 2998
[20] = tested on: UACC-62
[21] = tested on: MDA-MB-435
[22] = tested on: NCI/ADR-RES
[23] = tested on: RPMI-8226
[24] = tested on: RXF 393
[25] = tested on: Malme-3M
[26] = tested on: LOX IMVI
[27] = tested on: A549
[28] = tested on: NCI-H460
[29] = tested on: COLO 205
[30] = tested on: M14
[31] = tested on: EKVX
[32] = tested on: UO-31
[33] = tested on: T47D
[34] = tested on: SF-268
[35] = tested on: CAKI-1
[36] = tested on: SK-MEL-5
[37] = tested on: OVCAR-3
[38] = tested on: CCRF-CEM
[39] = tested on: NCI-H23
[40] = tested on: SN12C
[41] = tested on: MDA-MB-231
[42] = tested on: HOP-62
[43] = tested on: IGROV-1
[44] = tested on: 786-0
[45] = tested on: HL-60
[46] = tested on: MDA-N
[47] = tested on: PC-3
[48] = tested on: HCT-116
[49] = tested on: NCI-H522
[50] = tested on: HT-29
[51] = tested on: MOLT-4
[52] = tested on: SR
[53] = tested on: SK-MEL-28
[54] = tested on: SNB-19
[55] = tested on: UACC-257
[56] = tested on: HOP-92
[57] = tested on: ACHN
[58] = tested on: OVCAR-5

Measured: GI50

NCCN/C(=N\c1ccccc1)Nc1ccccc1
> 100 µM: [1]
inactive: [2] > 100 µM | [3] > 100 µM | [4] > 100 µM | [5] > 100 µM | [6] > 100 µM | [7] > 100 µM | [8] > 100 µM | [9] > 100 µM | [10] 70.8 µM | [11] > 100 µM | [12] > 100 µM | [13] > 100 µM | [14] > 100 µM | [15] > 100 µM | [16] > 100 µM | [17] > 100 µM | [18] 72.6 µM | [19] > 100 µM | [20] > 100 µM | [21] > 100 µM | [22] > 100 µM | [23] > 100 µM | [24] 24.3 µM | [25] > 100 µM | [26] 83.8 µM | [27] > 100 µM | [28] > 100 µM | [29] > 100 µM | [30] > 100 µM | [31] > 100 µM | [32] > 100 µM | [33] > 10 µM | [34] > 100 µM | [35] > 100 µM | [36] 99.5 µM | [37] > 100 µM | [38] > 100 µM | [39] > 100 µM | [40] > 100 µM | [41] > 100 µM | [42] > 100 µM | [43] > 100 µM | [44] > 100 µM | [45] > 100 µM | [46] > 100 µM | [47] 55.6 µM | [48] 94.2 µM | [49] 68.4 µM | [50] > 100 µM | [51] > 100 µM | [52] > 100 µM | [53] > 100 µM | [54] > 100 µM | [55] > 100 µM

CC(NC(=O)C1CCCN1C(=O)CNC(=O)OC(C)(C)C)C(=O)O (stereo not drawn) (Boc-Gly-Pro-Ala-OH; configuration not given here)
inactive: [3] > 100 µM | [4] > 100 µM | [5] > 100 µM | [6] > 100 µM | [7] > 100 µM | [8] > 100 µM | [9] > 100 µM | [10] > 100 µM | [11] > 100 µM | [12] > 100 µM | [13] > 100 µM | [14] > 100 µM | [15] > 100 µM | [16] > 100 µM | [17] > 100 µM | [18] > 100 µM | [19] > 100 µM | [20] > 100 µM | [21] > 100 µM | [22] > 100 µM | [23] > 100 µM | [24] > 100 µM | [25] > 100 µM | [27] > 100 µM | [28] > 100 µM | [29] > 100 µM | [30] > 100 µM | [31] > 100 µM | [32] > 100 µM | [33] > 100 µM | [34] > 100 µM | [35] > 100 µM | [36] > 100 µM | [37] > 100 µM | [39] > 100 µM | [40] > 100 µM | [41] > 100 µM | [42] > 100 µM | [43] > 100 µM | [56] 62.5 µM | [57] > 100 µM | [44] > 100 µM | [46] > 100 µM | [47] > 100 µM | [49] > 100 µM | [58] > 100 µM | [50] > 100 µM | [51] > 100 µM | [52] > 100 µM | [53] > 100 µM | [54] > 100 µM | [55] > 100 µM
> 100 µM: [1]
